The term Ki denotes a dissociation constant, usually derived from enzyme kinetics or from competition with a known ligand.

Structures are written as SMILES. Calls of active or inactive are those of the source. No cut-off for these calls is given here.

From ChEMBL document CHEMBL1146423, “Adenosine-1 active ligands: cirsimarin, a flavone glycoside from Microtea debilis” (J Nat Prod, 1997) come the findings set out here.

The target in one assay is T1, Adenosine receptor A1 (Rattus norvegicus) (UniProt P25099).
T1 sequence (whole entry): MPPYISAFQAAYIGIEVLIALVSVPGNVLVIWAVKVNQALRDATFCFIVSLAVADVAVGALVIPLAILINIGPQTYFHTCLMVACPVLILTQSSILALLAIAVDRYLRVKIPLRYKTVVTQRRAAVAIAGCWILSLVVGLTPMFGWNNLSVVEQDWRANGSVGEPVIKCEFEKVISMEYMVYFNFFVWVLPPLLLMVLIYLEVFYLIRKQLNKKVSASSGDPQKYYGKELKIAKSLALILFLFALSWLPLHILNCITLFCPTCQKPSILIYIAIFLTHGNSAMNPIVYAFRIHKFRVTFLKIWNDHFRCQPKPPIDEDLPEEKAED
Briefly: Displacement of [3H]DPCPX from adenosine A1 receptor in rat forebrain membrane assessed as fraction of receptor bound radioligand at 100 ug/mL. It is filed as cell membranes.
On to `COc1cc2oc(-c3ccc(O)cc3)cc(=O)c2c(O)c1OC`, for which the Activity stood at 48%.
Consider `O=c1cc(-c2ccc(O)cc2)oc2cc(O)cc(O)c12`, for which the Activity was 50%.
On the same count and under the same terms, the same measure for `C[C@@H]1O[C@@H](OC[C@H]2O[C@@H](Oc3c(-c4ccc(O)cc4)oc4cc(O)cc(O)c4c3=O)[C@H](O)[C@@H](O)[C@@H]2O)[C@H](O)[C@H](O)[C@H]1O`: 37%; for `COc1cc2oc(-c3ccc(O[C@@H]4O[C@H](CO)[C@@H](O)[C@H](O)[C@H]4O)cc3)cc(=O)c2c(O)c1OC` [CIRSIMARIN]: 2%; for `C[C@@H]1O[C@@H](Oc2c(-c3ccc(O)c(O)c3)oc3cc(O)cc(O)c3c2=O)[C@H](O)[C@H](O)[C@H]1O` (stereo in doubt; 6): 50%.
In the case of `O=c1cc(-c2ccc(O)cc2)oc2c([C@@H]3O[C@H](CO)[C@@H](O)[C@H](O)[C@H]3O)c(O)cc(O)c12`, the Activity is 103%.
On the same count and under the same terms, the figure for `O=c1c(O[C@@H]2O[C@H](CO)[C@H](O)[C@H](O)[C@H]2O)c(-c2ccc(O)c(O)c2)oc2cc(O)cc(O)c12` is 86%; for `O=c1c(O)c(-c2ccc(O)cc2)oc2cc(O)cc(O)c12` it is 18%; for `COc1cc(-c2cc(=O)c3c(O)cc(O[C@@H]4O[C@H](CO)[C@@H](O)[C@H](O)[C@H]4O[C@@H]4O[C@@H](C)[C@H](O)[C@@H](O)[C@H]4O)cc3o2)ccc1O` it is 94%.
Same read-out and setting: the figure for `C[C@@H]1O[C@@H](OC[C@H]2O[C@@H](Oc3c(-c4ccc(O)c(O)c4)oc4cc(O)cc(O)c4c3=O)[C@H](O)[C@@H](O)[C@@H]2O)[C@H](O)[C@H](O)[C@H]1O` is 103%; for `C[C@@H]1O[C@@H](Oc2c(-c3ccc(O)c(O)c3)oc3cc(O)cc(O)c3c2=O)[C@H](O)[C@H](O)[C@H]1O` (stereo in doubt; 8) it is 58%; for `O=c1c(O)c(-c2cc(O)c(O)c(O)c2)oc2cc(O)cc(O)c12` it is 24%.

The target in the next assay is T1, Adenosine receptor A1 (Rattus norvegicus). Put plainly: Displacement of [3H]DPCPX from adenosine A1 receptor in rat forebrain membrane in presence of GTP. Format: cell membranes. In general terms: In a radioligand displacement assay an active substance lowers the binding of a labelled ligand.
With `COc1cc2oc(-c3ccc(O[C@@H]4O[C@H](CO)[C@@H](O)[C@H](O)[C@H]4O)cc3)cc(=O)c2c(O)c1OC` [CIRSIMARIN], the result was Active.

In the next assay the target is T2, Adenosine receptor A1 (Rattus norvegicus, UniProt P25099).
T2 sequence (P25099 whole entry): T1 sequence (whole entry)
Put plainly: Displacement of [3H]DPCPX from adenosine A1 receptor in rat forebrain membrane. It is filed as cell membranes.
`COc1cc2oc(-c3ccc(O[C@@H]4O[C@H](CO)[C@@H](O)[C@H](O)[C@H]4O)cc3)cc(=O)c2c(O)c1OC` [CIRSIMARIN] had a Ki of 3.2 µM.
